Measured values taken from ChEMBL document CHEMBL1147438, “Discovery of novel aspartyl ketone dipeptides as potent and selective caspase-3 inhibitors” (Bioorg Med Chem Lett, 2004).

Tests used:
[1] = molecular target: Caspase-8 (Homo sapiens, UniProt Q14790); experiment: Inhibitory activity against caspase-8
[2] = molecular target: T1, Caspase-3 (Homo sapiens, UniProt P42574); experiment: Inhibitory activity against caspase-3
T1 sequence (P42574 whole entry): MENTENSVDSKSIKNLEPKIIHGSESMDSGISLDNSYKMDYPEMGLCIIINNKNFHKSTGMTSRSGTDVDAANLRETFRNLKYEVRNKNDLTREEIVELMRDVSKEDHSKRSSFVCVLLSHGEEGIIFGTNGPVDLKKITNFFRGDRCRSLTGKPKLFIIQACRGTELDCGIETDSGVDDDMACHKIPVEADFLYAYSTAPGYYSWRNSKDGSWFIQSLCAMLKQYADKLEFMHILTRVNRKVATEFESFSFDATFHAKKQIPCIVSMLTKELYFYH

[3] = molecular target: T2, Caspase-1 (Homo sapiens, UniProt P29466); experiment: Inhibitory activity against caspase-1
T2 sequence (P29466 whole entry): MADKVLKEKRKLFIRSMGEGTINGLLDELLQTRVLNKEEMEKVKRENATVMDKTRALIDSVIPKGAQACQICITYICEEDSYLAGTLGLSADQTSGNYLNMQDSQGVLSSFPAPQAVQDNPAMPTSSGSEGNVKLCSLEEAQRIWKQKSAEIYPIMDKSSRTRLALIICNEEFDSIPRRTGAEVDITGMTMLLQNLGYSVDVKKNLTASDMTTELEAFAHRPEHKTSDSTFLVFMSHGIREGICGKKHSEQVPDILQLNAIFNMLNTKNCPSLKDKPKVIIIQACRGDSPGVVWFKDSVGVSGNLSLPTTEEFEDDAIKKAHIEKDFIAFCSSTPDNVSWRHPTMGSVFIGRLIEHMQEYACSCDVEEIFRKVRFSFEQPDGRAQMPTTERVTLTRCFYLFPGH

[4] = molecular target: T3, Caspase-7 (Homo sapiens, UniProt P55210); experiment: Inhibitory activity against caspase-7
T3 sequence (P55210 whole entry): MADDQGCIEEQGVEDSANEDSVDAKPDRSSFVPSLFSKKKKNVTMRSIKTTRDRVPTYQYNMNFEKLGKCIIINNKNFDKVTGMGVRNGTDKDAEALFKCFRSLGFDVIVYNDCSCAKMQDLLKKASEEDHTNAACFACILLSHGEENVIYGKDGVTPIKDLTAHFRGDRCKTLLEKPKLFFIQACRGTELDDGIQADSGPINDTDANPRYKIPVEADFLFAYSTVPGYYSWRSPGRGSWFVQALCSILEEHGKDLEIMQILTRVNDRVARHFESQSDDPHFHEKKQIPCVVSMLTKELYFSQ

[5] = system: NT2; experiment: Inhibitory activity against NT2 cells; format: functional, cell-based; conditions: Homo sapiens

Caspase-8, sequence (Q14790 217-374 limits assumed): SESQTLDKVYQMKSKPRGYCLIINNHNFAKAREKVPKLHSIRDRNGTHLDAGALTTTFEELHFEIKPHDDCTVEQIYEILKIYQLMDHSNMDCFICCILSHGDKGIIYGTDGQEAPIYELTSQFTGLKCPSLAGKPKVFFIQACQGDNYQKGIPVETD
Caspase-8, sequence (Q14790 385-479 limits assumed): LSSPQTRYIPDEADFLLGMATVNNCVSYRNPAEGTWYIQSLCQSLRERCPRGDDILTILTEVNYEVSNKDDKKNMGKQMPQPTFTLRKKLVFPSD

Row | IC50 [1] [µM] | IC50 [2] [µM] | IC50 [3] [µM] | IC50 [4] [µM] | IC50 [5] [µM] | Compound
1 | 15.5 | 0.31 | 28 | 2.7 | – | COc1ccccc1CC(=O)N[C@H](C(=O)N[C@@H](CC(=O)O)C(=O)CSCc1ccccc1)C(C)C
2 | 6.6 | 0.048 | 6 | 3.2 | 10 | COc1ccc(OC)c(CC(=O)N[C@H](C(=O)N[C@@H](CC(=O)O)C(=O)CSCc2ccccc2)C(C)C)c1
3 | 0.49 | 0.005 | 1.6 | 0.12 | 1 | COc1ccc(S(C)(=O)=O)cc1CC(=O)N[C@H](C(=O)N[C@@H](CC(=O)O)C(=O)CSCc1c(F)cccc1Cl)C(C)C
4 | 8.7 | 0.14 | 0.86 | 1.5 | 63 | CC(C)[C@H](NC(=O)c1cc(Br)cc(Br)c1)C(=O)N[C@@H](CC(=O)O)C(=O)CSCc1ccccc1
5 | 2.9 | 0.01 | 5.9 | 0.13 | 2 | COc1ccc(C(C)=O)cc1CC(=O)N[C@H](C(=O)N[C@@H](CC(=O)O)C(=O)CSCc1ccccc1)C(C)C
6 | 2.4 | 0.073 | 5 | 2.5 | 9 | COc1ccc(OC)c(CC(=O)N[C@H](C(=O)N[C@@H](CC(=O)O)C(=O)CSCc2c(F)cccc2Cl)C(C)C)c1
7 | 0.81 | 0.005 | 3.8 | 0.36 | 5 | CCOc1ccc(OCC(=O)O)cc1CC(=O)N[C@H](C(=O)N[C@@H](CC(=O)O)C(=O)CSCc1c(F)cccc1Cl)C(C)C
8 | 6.3 | 0.094 | 4.2 | 2.3 | 0.3 | CCOc1ccc(OCC(=O)OC(C)C)cc1CC(=O)N[C@H](C(=O)N[C@@H](CC(=O)O)C(=O)CSCc1c(F)cccc1Cl)C(C)C
9 | 3.3 | 0.083 | 2.6 | 1.4 | 55 | CC(C)[C@H](NC(=O)c1cc2cc(F)ccc2[nH]1)C(=O)N[C@@H](CC(=O)O)C(=O)CSCc1ccccc1
10 | 14 | 0.21 | 14 | 3.1 | 60 | COc1cccc(CC(=O)N[C@H](C(=O)N[C@@H](CC(=O)O)C(=O)CSCc2ccccc2)C(C)C)c1
11 | 1.5 | 0.0018 | 1.65 | 0.0084 | 14 | CC(C)[C@H](NC(=O)[C@H](C)NC(=O)[C@H](CC(=O)O)NC(=O)c1ccccc1)C(=O)N[C@@H](CC(=O)O)C(=O)CCCc1ccccc1
12 | 9.3 | 0.053 | 6.5 | 1.7 | 0.7 | CCOc1ccc(OCC(=O)OC)cc1CC(=O)N[C@H](C(=O)N[C@@H](CC(=O)O)C(=O)CSCc1c(F)cccc1Cl)C(C)C
13 | 2 | 0.063 | 1.8 | > 10 | 19 | COc1ccc(OC)c(CC(=O)N[C@H](C(=O)N[C@@H](CC(=O)O)C(=O)CSCC2CCCCC2)C(C)C)c1
14 | 22.5 | 0.75 | 22 | 8.4 | – | CC(C)[C@H](NC(=O)Cc1ccccc1)C(=O)N[C@@H](CC(=O)O)C(=O)CSCc1ccccc1
15 | 7.8 | 0.13 | 2.6 | 1.8 | 32 | COc1ccc(OC)c(CC(=O)N[C@H](C(=O)N[C@@H](CC(=O)O)C(=O)CSCC(C)C)C(C)C)c1
16 | 0.13 | – | 0.19 | 0.087 | > 100 | CC(=O)N[C@@H](CC(=O)O)C(=O)N[C@@H](CCC(=O)O)C(=O)N[C@H](C(=O)N[C@H](C=O)CC(=O)O)C(C)C
17 | 3.85 | – | 1.8 | 0.024 | 0.6 | CCOc1ccc(/C=C/C(=O)OC)cc1CC(=O)N[C@H](C(=O)N[C@@H](CC(=O)O)C(=O)CSCc1c(F)cccc1Cl)C(C)C
18 | 2.3 | 0.06 | 3.1 | 3.1 | 9 | COc1ccc(Br)cc1CC(=O)N[C@H](C(=O)N[C@@H](CC(=O)O)C(=O)CSCc1ccccc1)C(C)C
